Publication PMC4158172 (European Journal of Clinical Pharmacology, 2014)
Read-outs that look alike come from different tables or passages of the source.

Tests used:
[1] = tested on: CYP1A2; design: method as in PMID 23132334; conditions: in vitro; cited from earlier work
[2] = Safety evaluations, interaction study with EFV; format: in vivo, human; conditions: healthy subjects n=12
Procedure: (§1) In both studies, safety evaluations [adverse event (AE) reporting, clinical chemistry laboratory tests, urinalysis, vital signs and electrocardiogram] were performed throughout the study. Given the known hepatotoxicity profile of TPV/r, more frequent monitoring of liver chemistries was performed in the TPV/r study, and conservative stopping criteria were employed such that any subject reaching a grade 2 increase in alanine aminotransferase (ALT) or aspartate aminotransferase (AST) was discontinued from the trial. Both trials were conducted as inpatient studies with subjects housed in the unit for the duration of the study. The studies were conducted in accordance with the principles of the Declaration of Helsinki. A written informed consent was obtained from all subjects, and both protocols were approved by the institutional review board of the study sites.

[3] = tested on: OATP1B3; design: method as in PMID 23132334; conditions: in vitro; cited from earlier work
[4] = tested on: CYP isozymes; design: method as in PMID 23132334; conditions: in vitro; cited from earlier work
[5] = tested on: CYP3A4; conditions: in vivo; cited from earlier work
[6] = DTG steady-state plasma pharmacokinetics, interaction with EFV; format: in vivo, human; conditions: for Cmax / AUC / concentration at 24 h / Tmax: both sexes, human, oral, fasting; for AUC: read-out: AUC(0–τ); for concentration at 24 h: read-out: C τ; for Tmax: n=12, median (range)
Procedure: There was no washout between treatment periods. All doses were administered in the fasting state. […]

[7] = cited from earlier work
[8] = Safety evaluations, interaction study with TPV/r; format: in vivo, human; conditions: healthy subjects n=18
Procedure: as §1

[9] = Urinary metabolic profile of DTG (pooled urine); format: in vivo, human; conditions: pooled urine 0-24 h, n=12, mean (standard deviation)
Procedure: (§2) There was no washout between treatment periods. All doses were administered in the fasting state.
(§3) Urine samples were collected at intervals of 0 to 12 hours and 12 to 24 hours after each treatment period. Individual urine pools were produced for each subject in a given treatment group by combining proportional volumes (% of total volume) from the 0- to 12-hours and 12- to 24-hours collections. Individual pooled human plasma samples were prepared for each subject and treatment group.
(§4) Each pooled plasma sample was mixed with aqueous EDTA disodium salt solution (10 mg/mL) and subsequently extracted 3 times with methanol and acetonitrile. Pooled urine samples were lyophilised and the residue was reconstituted in water:methanol (90:10 v/v). Drug-related components in plasma extracts and urine samples were separated on a 100 × 4.6 mm 3.5-micron Symmetry C18 column (Waters Associates) at 40°C by a step-gradient elution method with a mobile phase composition of water:acetonitrile containing 0.1% ammonium acetate starting at 95:5 (v/v) and ending at 5:95 (v/v) over 50 minutes. The eluate was analysed by multistage mass spectrometry (MSn) using an LTQ Orbitrap™ Hybrid Mass Spectrometer with Xcalibur 2.07 software (Thermo Fisher Scientific, Bremen, Germany). Data-dependent scanning using an accurate mass list, consisting of all previously characterised metabolites, was used in addition to analysis of pre-dose samples to aid in the distinction of drug-related material from endogenous components.

[10] = tested on: P-glycoprotein (P-gp); design: method as in PMID 23132334; conditions: in vitro; cited from earlier work
[11] = design: method as in earlier work; conditions: SAILING, DTG 50 mg once daily with EFV- or TPV/r-containing background regimens, n=16; cited from earlier work
[12] = design: method as in PMID 19884365; conditions: healthy subjects; cited from earlier work
[13] = tested on: UGT1A1; design: method as in PMID 23132334; conditions: in vitro; cited from earlier work
[14] = tested on: HIV; design: method as in earlier work; conditions: SAILING, cited from earlier work
[15] = tested on: MRP2; design: method as in PMID 23132334; conditions: in vitro; cited from earlier work
[16] = Plasma metabolic profile of DTG (pooled plasma); format: in vivo, human; conditions: individual 24-h proportionally pooled plasma, DTG alone and DTG + EFV
Procedure: as §2, §3
as §4, with “Data-dependent scanning using an accurate mass list, consisting of all previously characterised metabolites, was used in addition to analysis of pre-dose samples to aid in the distinction of drug-related material from endogenous components.” left out

[17] = tested on: OATP1B1; conditions: cited from earlier work
[18] = tested on: BCRP; design: method as in PMID 23132334; conditions: in vitro; cited from earlier work
[19] = plasma, DTG 50 mg + EFV 600 mg q24h for 14 days, n=12, geometric mean (CV%)
[20] = plasma, DTG 50 mg q24h alone for 5 days, n=12, geometric mean (CV%)
[21] = co-administration of EFV 600 mg q24h and DTG 50 mg q24h

GLS mean ratio (90 % CI) of AUC(0–τ) ([6]; DTG+EFV vs DTG alone, n=12): 0.431 (0.346, 0.536) | GLS mean ratio (90 % CI) of C max ([6]; DTG+EFV vs DTG alone, n=12): 0.608 (0.506, 0.730) | GLS mean ratio (90 % CI) of C τ ([6]; DTG+EFV vs DTG alone, n=12): 0.245 (0.179, 0.336) | Cmax ([6]; DTG 50 mg q24h alone for 5 days, healthy subjects n=12, plasma, geometric mean (CV%)): 3080 ng/mL | Cmax [6, 19]: 1870 ng/mL | AUC [6, 19]: 18200 ng·h/mL | concentration at 24 h [6, 19]: 220 ng/mL | Tmax ([6]; plasma, DTG 50 mg + EFV 600 mg q24h for 14 days): 1 h | AUC [6, 20]: 42300 ng·h/mL | concentration at 24 h [6, 20]: 910 ng/mL | Tmax ([6]; plasma, DTG 50 mg q24h alone for 5 days): 2 h | decrease in plasma DTG AUC(0–τ) [6, 21]: 57% | decrease in plasma DTG C max [6, 21]: 39% | decrease in plasma DTG C τ [6, 21]: 75% | % DTG ([9]; DTG 50 mg + EFV q24h): 100% | % Total drug-related response ([9]; DTG 50 mg + EFV q24h): 6.2 (5.0) % | % DTG ([9]; DTG 50 mg q24h): 100% | % Total drug-related response ([9]; DTG 50 mg q24h): 6.4 (1.8) % | share of drug-related material in plasma [16]: > 97%
Compound: C[C@@H]1CCO[C@H]2Cn3cc(C(=O)NCc4ccc(F)cc4F)c(=O)c(O)c3C(=O)N12 [DTG, Dolutegravir]
induction of CYP1A2 [1]: not an inducer | subjects reporting at least one AE [2]: 17% | tolerability ([2]; repeat doses): generally well tolerated | direct inhibition of OATP1B3 [3]: minimal or no direct inhibition | direct inhibition of CYP isozymes [4]: minimal or no direct inhibition | component of metabolism via CYP3A4 [5]: ~10% | C0 ([7]; DTG 50 mg once daily without inducers, phase III studies in INI-naive populations): approximately 1.2 μg/mL | C0 (equivalent to C τ), geometric mean ([7]; VIKING-3, DTG 50 mg twice daily with EFV and TPV/r in background regimens, n=18, CV 63 %): 1620 ng/mL | C0 higher than with DTG 50 mg once daily without inducers ([7]; VIKING-3, DTG 50 mg twice daily with EFV and TPV/r in background regimens, n=18): 35% | subjects reporting headache [8]: 11% | direct inhibition of P-gp [10]: minimal or no direct inhibition | lower average DTG pre-dose (C 0) concentration [11]: 78% | pre-dose (C 0) concentration, geometric mean [11]: 186 ng/mL | effect on midazolam exposure [12]: no significant effect | direct inhibition of UGT1A1 [13]: minimal or no direct inhibition | week 48 Snapshot response rate ([14]; DTG 50 mg once daily with EFV- or TPV/r-containing background regimens, n=16): 56.3% | week 48 Snapshot response rate ([14]; subjects not on these inducers or inhibitors (atazanavir and atazanavir/ritonavir)): 74.4% | direct inhibition of MRP2 [15]: minimal or no direct inhibition | direct inhibition of OATP1B1 [17]: minimal or no direct inhibition | direct inhibition of BCRP [18]: minimal or no direct inhibition
